# Patent publication US6239284A, “Aromatic tetracyclic compounds of the retinoid type method for preparing and use” (priority 1997, dated 2001)
# Entries after “also recorded” stand apart in the source; their conditions may differ. Read-outs that look alike come from different tables or passages of the source.
# Columns and labels:
# AP-1 = assay: Anti-AP-1 effect, MTLN cellular lineage (MCF-7 with (TRE)3-tk-Luc) activated by TPA; assay type: cell-based, human; conditions: for Anti-AP-1 effect, Inhibition (%): 10^-7 M TPA, range of several experiments; for inhibition at 1 µM: Homo sapiens, AP1, read-out: Inhibition of AP-1 route (MTLN)
# Procedure: The anti-factor AP-1 transrepressor effect of retinoids is determined using the MTLN lineage, coming from MCF-7 cells transfected in a stable fashion by a vector p(TRE)3 -tk-Luc which places the expression of the gene of luciferase under the control of […]. TPA activates the AP-1 complex formed from proteins of the family of nuclear proto-oncogenes (c-Jun and c-Fos). […] The experiments ware made with the MTLN cells activated by 10^-7 M TPA.
# The effect of the compounds on the MTLN cells activated by 10^-7 M TPA is expressed as a percentage. […] The inhibitive properties of the products are calculated after deduction of the base activity of the cells. The percentages reported correspond to a range of inhibitions determined from several experiments.
# RARβ [1] = assay: Transactivation of chimerical receptor RARβ-ERcassette, transient transfection of HeLa cells; assay type: cell-based; conditions: for RAR-ERcassette RARβ transactivation (%): 100% = TTNPB 10^-8 M
# From the text: (§1) The HeLa cells are co-transfected by a plasmid which codes for a retinoic receptor in which the C domain of bonding to the DNA is substituted by that of the receptor to RE estrogens, and a plasmid which places the expression of the luciferase under the control of an ERE (Element of Response to Estrogens). The expressed chimerical receptors are designated as RARα-ERcassette, RARβ-ERcassette, RARγ-ERcassette and RXRα-ERcassette. The A, B, D, E and F regions of the natural receptor are preserved as well as the transcriptional co-operation between the activation domains AF-1 and AF-2. These transitory transfection experiments follow the method of co-precipitation to calcium phosphate. The HeLa cells are co-transfected by […] of plasmid coding for the chimerical receptor, […] of reporter plasmid and […] of expression vector CMV-β-galactosidase used as an internal control of transfection. 24 hours after the transfection, the cells are incubated for 16 hours with the different effectors.
# (§2) In this type of chimerical receptor, the C domain of bonding to the DNA of RAR is substituted by that of the receptor to the RE estrogens. The protein obtained is close to the natural RAR receptor and preserves the transcriptional properties of the AF-1 and AF-2 domains. It modulates the transcription by means of an ERE. This RAR-ERcassette model allows one to observe a transcriptional response to a more physiological ligand.
# (§3) The study of the selectivity of the compounds was carried out with the RAR-ERcassette chimerical receptors model.
# (§4) On one and the same line in the Table, the cis (Z) compound represents the isomeric structure of the trans (E) compound.
# RARγ [2] = assay: Transactivation of chimerical receptor GAL4-RARγ, transient transfection of HeLa cells (luciferase)
# From the text: (§8) Studies of the transactivational specificity of the retinoids have been carried out by transitory transfection of HeLa cells. Two types of chimerical receptors can then be expressed by the cells. […] The C region (domain of bonding to the DNA) and the A and B regions (AF-1 activation domain) are suppressed.
# (§9) These chimerical receptors activated by an agonist specifically stimulate the transcription of the gene of the luciferase present in a co-transfected plasmid ((17M)5-βG-Luc) where 17M is the response element of Gal4.
# MCF-7 cells = assay: Anti-proliferation effect, estrogen-induced growth of MCF-7 cells; assay type: cell-based, human; conditions: for Effect on growth of MCF-7 cells in words: estrogenic conditions
# Procedure: (§5) So as to test the anti-proliferation effect of the retinoids, growth experiments under oestrogenic conditions were carried out on cells MCF-7 and T-47D. These are the human estrogen-dependent mammary cancer cells which express the receptor to RE estrogens. The effect of the molecules is evaluated after 7 days of culture in oestrogenic conditions (estradiol 10^-9 M) by dosing the cellular DNA. The cells are distributed in 24 well plates at a density of 2×10^4 cells per well. The tests with the different retinoids are carried out in triplicate and the culture medium is changed after 4 days of growth.
# (§6) The effect of the retinoids on the growth of MCF-7 and T-47D cells is evaluated after 7 days of culture in the presence of 10^-9 M estradiol by dosing the cellular DNA.
# RARE [3] = assay: HRL+N transactivation (stably transfected HeLa, RARE reporter, endogenic receptors); assay type: cell-based; conditions: for activation at 1 µM: Table 12
# From the text: (§7) The cellular lineages HRLN and HRL+N allow one to study the activation of an RARE by endogenic receptors using ligands at physiological concentrations. These lineages derive from HeLa cells transfected in a stable fashion by a reporter gene which places the expression of the gene of the luciferase under the control of a nuclear response element RARE (RARE3 -tk-Luc). The HeLa cells express all the known receptors of the retinoic acid (RARα,β,γ and RXRα,β,γ) with a predominance of RARα and RXRα. The response element RARE used for the HRLN cells corresponds to the sequence of the natural gene of the RARβ receptor (GGTTCAnnnnnAGTTCA). The HRL+N cells comprise the sequence GAGTGAnnnnnCGGTGA.
# The HRL+N lineage allows one to visualize a co-activation of the RAR and RXR receptors at the level of the RAR-RXR hetero-dimer.
# RAR [4] = assay: GAL-RAR model, specificity profile (transient transfection of HeLa cells)
# From the text: as §8, §9
# T-47D cells = assay: Anti-proliferation effect, estrogen-induced growth of T-47D cells; assay type: cell-based, human; conditions: for Effect on growth of T-47D cells in words: estrogenic conditions
# Procedure: as §5, §6
# RARβ [5] = assay: Transactivation of chimerical receptor GAL4-RARβ, transient transfection of HeLa cells (luciferase)
# From the text: as §8, §9
# ERE = assay: Anti-estrogenic effect, MELN cellular lineage (MCF-7 with ERE-βGlob-Luc) activated by estradiol; assay type: cell-based, human
# Procedure: MCF-7 cells express RARα,γ and RXRα. The transfection of MCF-7 cells by an estrogen-dependent gene (ERE-βGlob-Luc) has permitted the establishment of the MELN cellular lineage, used to determine the anti-oestrogenic activity of the retinoids. These cells contain the gene of the luciferase under the transcriptional control of the promoter of the βGlobine and of the response element ERE isolated from the gene of chicken vitelogenine A2. The experiments are carried out with MELN cells activated by 10^-9 M estradiol. The level of base activity of the MELN cells is obtained with the anti-estrogen 1 μM 4-OH-tamoxifen (hydroxytamoxifen).
# The effect of the products tested on the cells activated by 10^-9 M estradiol is expressed as a percentage, the level of base activity being deducted.
# RAR [6] = assay: RAR-ERcassette model, specificity profile (transient transfection of HeLa cells); assay type: cell-based
# From the text: as §1, §2, §3
# RARα [7] = assay: Transactivation of chimerical receptor RARα-ERcassette, transient transfection of HeLa cells; assay type: cell-based; conditions: for RAR-ERcassette RARα transactivation (%): 100% = TTNPB 10^-8 M
# From the text: as §1, §2, §3, §4
# RARγ [8] = assay: Transactivation of chimerical receptor RARγ-ERcassette, transient transfection of HeLa cells; assay type: cell-based; conditions: 100% = TTNPB 10^-8 M
# From the text: as §1, §2, §3, §4
# RARE [9] = assay: HRLN transactivation (stably transfected HeLa, RARE3-tk-Luc, endogenic receptors); assay type: cell-based
# From the text: as §7
# RARα [10] = assay: Transactivation of chimerical receptor GAL4-RARα, transient transfection of HeLa cells (luciferase)
# From the text: as §8, §9
# [11] = Homo sapiens, -6 log M (10^-6 M), 10^-9 M estradiol, read-out: Anti-oestrogenic effect, Inhibition (%)
# [12] = Homo sapiens, read-out: Anti-oestrogenic effect, Inhibition (%)
Compound,Anti-AP-1 effect (MTLN) in words (AP-1),RARβ transactivation (RAR-ERcassette) in words (RARβ [1]),"GAL4-RARγ activity, % of activity measured for 10^-8 M TTNPB (RARγ [2]; Concentration -6 (log M)) [%]","GAL4-RARγ activity, % of activity measured for 10^-8 M TTNPB (RARγ [2]; Concentration -7 (log M)) [%]","GAL4-RARγ activity, % of activity measured for 10^-8 M TTNPB (RARγ [2]; Concentration -8 (log M)) [%]",Effect on growth of MCF-7 cells in words (MCF-7 cells),HRL+N transactivation in words (RARE [3]),GAL-RAR agonist profile in words (RAR [4]),Effect on growth of T-47D cells in words (T-47D cells),"GAL4-RARβ activity, % of activity measured for 10^-8 M TTNPB (RARβ [5]; Concentration -7 (log M)) [%]","GAL4-RARβ activity, % of activity measured for 10^-8 M TTNPB (RARβ [5]; Concentration -8 (log M)) [%]","Anti-AP-1 effect, Inhibition (%) (AP-1; -7 log M)","Anti-AP-1 effect, Inhibition (%) (AP-1; -8 log M)",RAR-ERcassette profile in words (RAR [6]),inhibition at 1 µM (ERE; [11]) [%],RAR-ERcassette RARα transactivation (%) (RARα [7]; -6 log M (1 μM)),inhibition at 1 µM (AP-1) [%],RAR-ERcassette RARβ transactivation (%) (RARβ [1]; -6 log M (1 μM)),"activation at 1 µM (RARE [3]; Homo sapiens, HeLa) [%]",RAR-ERcassette RARγ transactivation (%) (RARγ [8]; -6 log M (1 μM)),further results
C=C(c1ccc(C(=O)O)cc1)c1cc2c(cc1C)C(C)(C)CCC2(C)C [LGD1069],most effective compound tested in this model,transcriptional power appears higher notably through the RARβ-ERcassette,29,8,1,no effect whatsoever on the growth,more effective than the RAR specific molecules,do not allow one to observe a good transactivation mediated by RAR,no effect whatsoever on the growth,5,1,–,–,–,–,–,–,–,–,–,–
"CC1(C)CCC(C)(C)c2cc(C(=O)Nc3ccc(C(=O)O)cc3)ccc21 [Am580, 4-[(5,6,7,8-tetrahydro-5,5,8,8-tetramethyl-2-naphthalenyl)carboxamido]benzoic acid]",–,–,–,–,–,–,–,–,–,–,–,41-48%,40-46%,–,–,–,–,–,–,–,"inhibition at 0.01 µM (ERE; Homo sapiens, -8 log M, 10^-9 M estradiol, read-out: Anti-oestrogenic effect, Inhibition (%)): 36 to 51%; inhibition at 1 µM (MCF-7 cells; Homo sapiens, MCF7, 168 h, at 1 μM, 7 days, estradiol 10^-9 M, read-out: MCF-7 percentage inhibition of growth): 67%; inhibition at 1 µM (T-47D cells; Homo sapiens, T47D, 168 h, at 1 μM, 7 days, estradiol 10^-9 M, read-out: T-47D percentage inhibition of growth): 74%"
"Cc1cc2c(cc1/C=C1/CCc3cc(-c4nnn[nH]4)ccc31)C(C)(C)CCC2(C)C [CB02981, (Z) 5-[1-[2-(5,6,7,8-tetrahydro-3,5,5,8,8-pentamethyl)naphthalenylmethylene]-2,3-dihydro-1H-indenyl]-1H-tetrazole]","in association with a RXR agonist, an additive effect of the inhibiting effects of the two molecules is observed; also recorded: dissociating compound and causes inhibition of the AP-1 ring",–,–,–,–,no effect whatsoever,does not cause transactivation mediated by RAR and RXR,–,no effect whatsoever,–,–,–,–,inactive,0,4,~20,7,0,0,"HRLN transactivation in words (RARE [9]): inactive; activation at 1 µM (RARE [9]; Homo sapiens, HeLa): 0%"
"Cc1cc2c(cc1/C=C1/CCc3cc(C(=O)O)ccc31)C(C)(C)CCC2(C)C [CB75403, (Z) 1-[2-(5,6,7,8-tetrahydro-3,5,5,8,8-pentamethyl)naphthalenylmethylene]-2,3-dihydro-1H-indene-5-carboxylic acid]",–,same level of transactivation through the intermediary of RARβ at 0.1 μM and at 1 μM and also at 3 μM,–,–,–,–,–,–,–,–,–,–,–,"RARβ,γ specificity; also recorded: RARβ,γ selectivity",0,12,~30,65,18,68,RARα transactivation (RAR-ERcassette) in words (RARα [7]): inactive on RARα; RAR-ERcassette RARα transactivation (%) (RARα [7]; -7 log M): 3%; RAR-ERcassette RARβ transactivation (%) (RARβ [1]; -7 log M): 68%; RAR-ERcassette RARγ transactivation (%) (RARγ [8]; -7 log M): 40%
C/C(=C\c1ccc(C(=O)O)cc1)c1ccc2c(c1)C(C)(C)CCC2(C)C [TTNPB],–,–,–,–,–,–,–,–,–,–,–,29-54%,26-53%,–,–,–,–,–,–,–,"inhibition at 0.01 µM (ERE; [12]): 30 to 41%; Inhibition in MELN (ERE; RAR selective molecules, 10^-9 M estradiol): ~40%; IC50 (MCF-7 cells; Homo sapiens, MCF7, 168 h, read-out: MCF-7 IC50 (growth inhibition by 50%)): 0.35 ± 0.07 nM; IC50 (T-47D cells; Homo sapiens, T47D, 168 h, read-out: T-47D IC50 (growth inhibition by 50%)): 3.3 ± 1.1 nM; EC50 (RARE [9]; Homo sapiens, HeLa, read-out: HRLN transactivation EC50): 0.55 ± 0.72 nM"
Cc1cc2c(cc1C(=O)c1ccc(C(=O)O)cc1)C(C)(C)CCC2(C)C [LGD-CB14499],causes an inhibition of the AP-1 route,transcriptional power appears higher notably through the RARβ-ERcassette,13,0,0,–,–,do not allow one to observe a good transactivation mediated by RAR,–,1,0,17-30%,–,–,–,–,–,–,–,–,"Anti-estrogenic effect (MELN) in words (ERE): inactive; inhibition at 0.1 µM (ERE; [12]): 0%; inhibition at 1 µM (ERE; [12]): 0%; GAL4-RARα activity, % of activity measured for 10^-8 M TTNPB (RARα [10]; Concentration -6 (log M)): 17%; GAL4-RARα activity, % of activity measured for 10^-8 M TTNPB (RARα [10]; Concentration -7 (log M)): 4%; GAL4-RARα activity, % of activity measured for 10^-8 M TTNPB (RARα [10]; Concentration -8 (log M)): 1%; Emax at 1 µM (RARE [3]; Homo sapiens, HeLa): 94%; GAL4-RARβ activity, % of activity measured for 10^-8 M TTNPB (RARβ [5]; Concentration -6 (log M)): 9%; Emax (RARE [9]; Homo sapiens, HeLa, read-out: HRLN transactivation E max %): 30%"
